Laboratory results reported in patent publication US20260041649A1, “ANTI-INFLAMMATORY AGENT” (WATANABE OYSTER LABORATORY, CO., LTD., priority 2023, published 2026).

Assays:
[1] = tested on: mouse macrophage RAW264.7 cells; assay: Western blotting of proteins related to proliferation; format: cell-based; details: DHMBA 10 μM, 3 days
Experimental: RAW264.7 cells (1×10^6 cells/10 ml of medium in 100 mm dish) were cultured for 3 days in a DMEM culture medium containing 10% FBS, 1% P/S, and 1% fungizone in the control group (1% ethanol; 0 μM DHMBA as final concentration) and the DHMBA treated group (10 μM). After the culture, cells were removed from the dish using a cell scraper in a cell lysis buffer containing protease inhibitors. Forty micrograms of supernatant protein per lane were separated by electrophoresis on a 12% SDS-PAGE gel, transferred onto a […], and probed by Western blotting with antibodies against various proteins. […] In FIG. 3(B), band intensities are shown as fold increase over the control. Data are presented as the mean±SD of values obtained from 4 dishes using different cell preparations. *: Significant difference (p<0.001) between the control group and the DHMBA-treated group. Statistical analysis was performed using 1-way ANOVA with Tukey-Kramer post-test.
RAW264.7 cells (1×10^6 cells/10 ml of 100 mm dish) were cultured for 3 days in 10% FBS, 1% P/S (1% ethanol), or in the DHMBA-treated group (10 μM). After the culture, the dishes were washed with cold PBS (10 ml) to remove floating and dead cells. The cell lysis buffer (Cell Signaling Technology, Inc., Danvers, MA, USA) supplemented with protease/protein phosphatase inhibitor (Roche Diagnostics, Indianapolis, IN, USA) was added to the cells to collect cell lysates of the adherent cells as described in the previous study. The cell lysates were centrifuged at 17,000×g, 4° C. for 10 min. Protein concentrations in the supernatants were measured using Bio-Rad Protein Assay Dye (Bio-Rad Laboratories, Inc., Hercules, CA, USA) with bovine serum albumin as a standard. The cell lysates were stored at −80° C. until use. The supernatant proteins (40 μg/lane) were separated by SDS-polyacrylamide gel electrophoresis (12% SDS-PAGE) and transferred to a PVDF membrane. The transferred membranes were immunoblotted with specific antibodies against various proteins, including Ras (cat. no. 3339, rabbit), Akt (cat. no. 9272, rabbit), mitogen-activated protein kinase (MAPK; cat. no. 4695, rabbit), phosphorylated MAPK (cat. no. 4370, rabbit), mechanistic target of rapamycin (mTOR; cat. no. 4517, mouse), Rb (cat. no. 9309, mouse), p21 (cat. no. 2947, rabbit), STAT3 (cat. no. 12640, rabbit), COX-1 (cat. no. 48415), COX-2 (cat. no. 4842), and β-actin (cat. no. 3700, mouse), all of which were purchased from Cell Signaling Technology, Inc. (Danvers, MA, USA). Specific antibodies for p53 (cat. no. sc-126, mouse) and NF-κB p65 (cat. no. sc-109, rabbit) were purchased from Santa Cruz Biotechnology Inc. (Santa Cruz, CA, USA). Additionally, rabbit anti-regucalcin antibody (cat. no. HPA029103, rabbit) was obtained from Sigma-Aldrich. Target proteins were incubated overnight at 4° C. with one of the above primary antibodies (1:1,000). After incubation, the membranes were further incubated with horseradish peroxidase-conjugated secondary antibodies (Santa Cruz Biotechnology Inc., cat. no. sc-2005 (mouse) or sc-2305 (rabbit); dilution 1:2000) for 60 min at room temperature, and protein bands were detected using chemiluminescence substrates (cat. no. 34577, Thermo Fisher Scientific Inc., Rockford, IL, USA) on X-ray films. From 4 independent experiments, a total of 3 or 4 films with separate membranes were scanned with Epson Perfection 1660 Photo scanner to quantify the bands using Image J2 software (National Institutes of Health, Bethesda, MD, USA). In addition, for immunoblotting using additional antibodies, the membranes were incubated at room temperature for 30 min with Restore (registered trademark) Western Blot Stripping Buffer (cat. no. 21059; Thermo Fisher Scientific Inc., Rockford, IL, USA) to remove attached chemiluminescence substrates (Thermo Fisher Scientific Inc.,) and were used to measure other protein molecules.

[2] = tested on: mouse macrophage RAW264.7 cells; assay: Cell proliferation of RAW264.7 cells (cell count); format: cell-based; details: DHMBA 1, 10, 100 or 1000 μM, 1 to 4 days
Experimental: FIG. 2 is an explanatory diagram describing that the marine factor 3,5-dihydroxy-4-methoxybenzyl alcohol (DHMBA) suppresses the proliferation of mouse macrophage RAW264.7 cells. RAW264.7 cells (1×10^5 cells/ml per well in a 24-well plate) were cultured in a DMEM culture medium containing 10% FBS (fetal bovine serum), 1% P/S (penicillin/streptomycin), and 1% fungizone in a control group (1% ethanol; 0 μM DHMBA as final concentration) and in a DHMBA-treated group (0.1, 1, 10, 100, or 1000 μM) for 1 day (panel A), 2 days (B), 3 days (C), or 4 days (D). After the culture, the number of cells attached to the dish was counted. Data are presented as the mean±SD (standard deviation) from a total of 8 wells in 2 plates using different cell preparations. *: Significant difference (p<0.001) between the control group (gray bars) and the DHMBA-treated group. Statistical analysis was performed using 1-way ANOVA with Tukey-Kramer post-test.
After the culture, to detach the cells from each well, a Ca^2+/Mg^2+ free PBS solution with 0.05% trypsin/EDTA was added to the culture dish (0.1 ml per well) and incubated at 37° C. for 2 min. […]
The number of viable cells was counted under a microscope (Olympus MTV-3) using a hemocytometer (Sigma-Aldrich) and a cell counter (H-102P, Line Seiki Co., Ltd., Tokyo, Japan). […]

COc1c(O)cc(CO)cc1O [DHMBA, 3,5-dihydroxy-4-methoxybenzyl alcohol]
inhibited: proliferation of RAW264.7 cells (number of cells attached to the dish) [2]
decreased: level of Akt [1] | level of MAPK [1] | level of PI3 kinase [1] | level of Ras [1] | level of mTOR [1] | level of phospho-MAPK [1]
increased: expression level of Rb [1] | expression level of p21 [1] | expression level of p53 [1] | expression level of regucalcin [1]
